Reference: US11267825B2 (AICURIS GMBH & CO. KG, priority 2017, dated 2022)

What was measured:
HBV = assay: Determination of HBV DNA from the supernatants of HepAD38 cells (anti-HBV activity); assay type: cell-based, hepatitis B virus; conditions: Hepatitis B virus, 144 h; HBV DNA in HepAD38 supernatant at day 6; read-out: Cell Activity (EC50)
Summary of the method: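 EC50 values were obtained by non-linear regression of HBV DNA copy numbers measured by qPCR against pCH-9/3091 plasmid standards. The DNA came from filtered supernatants collected on day 6. Before that, tetracycline-withdrawn HepAD38 cells had been exposed to serial half-log compound dilutions, with tetracycline-treated cells as the non-producing control.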

HBV core protein = HBV core protein (UniProt P03146); assay type: biochemical; conditions: read-out: Assembly Activity (IC50); BODIPY-FL labelled core protein, assembly started with NaCl, read after 6 min
Summary of the method: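 Compounds tested at 8 concentrations in 0.5-log steps from 100, 31.6 or 10 μM against 1.0–2.0 μM BODIPY-FL-labelled Cys150 core dimers (residues 1–149), 50 mM HEPES pH 7.5. NaCl ([…] final) triggered assembly; quenching read at 6 min, 477/525 nm, with 2.5 M and 0 M NaCl as controls; EC50 by nonlinear fit.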

Chain of HBV core protein (P03146 whole entry, looked up, the tested form may be a part): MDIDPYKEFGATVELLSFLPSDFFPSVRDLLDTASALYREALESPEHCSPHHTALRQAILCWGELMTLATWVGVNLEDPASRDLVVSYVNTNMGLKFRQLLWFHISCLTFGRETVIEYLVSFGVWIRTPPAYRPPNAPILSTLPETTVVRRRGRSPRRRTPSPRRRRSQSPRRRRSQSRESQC

Compound | EC50 (HBV) | IC50 (HBV core protein)
Cc1ccc2[nH]c(C(=O)N3CCc4nc(N)sc4C3)cc2c1C [Example 136, 5-(4,5-dimethyl-1H-indole-2-carbonyl)-4H,5H,6H,7H-[1,3]thiazolo[5,4-c]pyridin-2-amine] | 1 to 10 µM | 5 to 10 µM
Nc1nc2c(s1)CN(C(=O)c1cc3c(F)c(F)ccc3[nH]1)CC2 [Example 172, 5-(4,5-difluoro-1H-indole-2-carbonyl)-4H,5H,6H,7H-[1,3]thiazolo[5,4-c]pyridin-2-amine] | < 1 µM | < 5 µM
CCNC(=O)C1(CNc2nc3c(s2)CN(C(=O)c2cc4ccccc4[nH]2)CC3)CCC1 [Example 417, N-ethyl-1-({[5-(1H-indole-2-carbonyl)-4H,5H,6H,7H-[1,3]thiazolo[5,4-c]pyridin-2-yl]amino}methyl)cyclobutane-1-carboxamide] | < 1 µM | < 5 µM
O=C(c1cc2ccccc2[nH]1)N1CCc2nc(NCC3CCC3)sc2C1 [Example 418, N-(cyclobutylmethyl)-5-(1H-indole-2-carbonyl)-4H,5H,6H,7H-[1,3]thiazolo[5,4-c]pyridin-2-amine] | < 1 µM | 5 to 10 µM
Nc1nc2c(s1)CN(C(=O)c1cc3c(C(F)F)cc(F)cc3[nH]1)CC2 [Example 292, 5-[4-(difluoromethyl)-6-fluoro-1H-indole-2-carbonyl]-4H,5H,6H,7H-[1,3]thiazolo[5,4-c]pyridin-2-amine] | < 1 µM | < 5 µM
Nc1nc2c(s1)CN(C(=O)c1cc3cccc(O)c3[nH]1)CC2 [Example 98, 2-{2-amino-4H,5H,6H,7H-[1,3]thiazolo[5,4-c]pyridine-5-carbonyl}-1H-indol-7-ol] | < 100 µM | < 100 µM
Nc1nc2c(s1)CN(C(=O)c1cc3cc(F)ccc3[nH]1)CC2 [Example 196, 5-(5-fluoro-1H-indole-2-carbonyl)-4H,5H,6H,7H-[1,3]thiazolo[5,4-c]pyridin-2-amine] | 1 to 10 µM | < 5 µM
O=C(c1cc2c(F)c(F)ccc2[nH]1)N1CCc2nc(NCC3(O)CCC3)sc2C1 [Example 375, 1-({[5-(4,5-difluoro-1H-indole-2-carbonyl)-4H,5H,6H,7H-[1,3]thiazolo[5,4-c]pyridin-2-yl]amino}methyl)cyclobutan-1-ol] | < 1 µM | < 5 µM
CCc1cc(F)cc2[nH]c(C(=O)N3CCc4nc(NC(=O)C5CCOCC5)sc4C3)cc12 [Example 403, N-[5-(4-ethyl-6-fluoro-1H-indole-2-carbonyl)-4H,5H,6H,7H-[1,3]thiazolo[5,4-c]pyridin-2-yl]oxane-4-carboxamide] | < 1 µM | < 5 µM
Nc1nc2c(s1)CN(C(=O)c1cc3c(F)cc(Br)cc3[nH]1)CC2 [Example 143, 5-(6-bromo-4-fluoro-1H-indole-2-carbonyl)-4H,5H,6H,7H-[1,3]thiazolo[5,4-c]pyridin-2-amine] | < 1 µM | < 5 µM
O=C(c1cc2ccccc2[nH]1)N1CCc2nc(NC(CO)CO)sc2C1 [Example 43, 2-{[5-(1H-indole-2-carbonyl)-4H,5H,6H,7H-[1,3]thiazolo[5,4-c]pyridin-2-yl]amino}propane-1,3-diol] | < 1 µM | < 5 µM
Nc1nc2c(s1)CCN(C(=O)c1cc3ccccc3[nH]1)CC2 [Example 25, 6-(1H-indole-2-carbonyl)-4H,5H,6H,7H,8H-[1,3]thiazolo[4,5-d]azepin-2-amine] | < 100 µM | < 100 µM
CC(C)c1cccc2[nH]c(C(=O)N3CCc4nc(N)sc4C3)cc12 [Example 12, 5-[4-(propan-2-yl)-1H-indole-2-carbonyl]-4H,5H,6H,7H-[1,3]thiazolo[5,4-c]pyridin-2-amine] | < 1 µM | < 5 µM
Nc1nc2c(s1)CN(C(=O)c1cc3c([N+](=O)[O-])cccc3[nH]1)CC2 [Example 145, 5-(4-nitro-1H-indole-2-carbonyl)-4H,5H,6H,7H-[1,3]thiazolo[5,4-c]pyridin-2-amine] | < 1 µM | < 5 µM
O=C(c1cc2ccccc2[nH]1)N1CCc2nc(NC3CCOC3)sc2C1 (centres unmarked) [Example 180, 5-(1H-indole-2-carbonyl)-N-(oxolan-3-yl)-4H,5H,6H,7H-[1,3]thiazolo[5,4-c]pyridin-2-amine] | < 1 µM | < 5 µM
COCC1(CNc2nc3c(s2)CN(C(=O)c2cc4ccccc4[nH]2)CC3)CC1 [Example 340, 5-(1H-indole-2-carbonyl)-N-{[1-(methoxymethyl)cyclopropyl]methyl}-4H,5H,6H,7H-[1,3]thiazolo[5,4-c]pyridin-2-amine] | < 1 µM | < 5 µM
O=C(c1cc2ccccc2[nH]1)N1CCc2nc(NCCO)sc2C1 [Example 157, 2-{[5-(1H-indole-2-carbonyl)-4H,5H,6H,7H-[1,3]thiazolo[5,4-c]pyridin-2-yl]amino}ethan-1-ol] | < 1 µM | < 5 µM
O=C(c1cc2ccccc2[nH]1)N1CCc2nc(NCC(F)(F)F)sc2C1 [Example 118, 5-(1H-indole-2-carbonyl)-N-(2,2,2-trifluoroethyl)-4H,5H,6H,7H-[1,3]thiazolo[5,4-c]pyridin-2-amine] | < 1 µM | < 100 µM
CC(F)(F)c1cc(F)cc2[nH]c(C(=O)N3CCc4nc(NCC5CCOC5)sc4C3)cc12 (centres unmarked) [Example 327, 5-[4-(1,1-difluoroethyl)-6-fluoro-1H-indole-2-carbonyl]-N-[(oxolan-3-yl)methyl]-4H,5H,6H,7H-[1,3]thiazolo[5,4-c]pyridin-2-amine] | < 1 µM | < 5 µM
Nc1nc2c(s1)CN(C(=O)c1cc3cc(Cl)c(Cl)cc3[nH]1)CC2 [Example 135, 5-(5,6-dichloro-1H-indole-2-carbonyl)-4H,5H,6H,7H-[1,3]thiazolo[5,4-c]pyridin-2-amine] | 1 to 10 µM | 5 to 10 µM
CCOC(=O)N1CCC(Nc2nc3c(s2)CN(C(=O)c2cc4ccccc4[nH]2)CC3)CC1 [Example 5, Ethyl 4-{[5-(1H-indole-2-carbonyl)-4H,5H,6H,7H-[1,3]thiazolo[5,4-c]pyridin-2-yl]amino}piperidine-1-carboxylate] | < 1 µM | 5 to 10 µM
Nc1nc2c(s1)CN(C(=O)c1cc3cccc(Cl)c3[nH]1)CC2 [Example 154, 5-(7-chloro-1H-indole-2-carbonyl)-4H,5H,6H,7H-[1,3]thiazolo[5,4-c]pyridin-2-amine] | < 1 µM | < 5 µM
CC(C)[C@H](N)C(=O)OCC1(CNc2nc3c(s2)CN(C(=O)c2cc4ccccc4[nH]2)CC3)CC1 [Example 235, [1-({[5-(1H-indole-2-carbonyl)-4H,5H,6H,7H-[1,3]thiazolo[5,4-c]pyridin-2-yl]amino}methyl)cyclopropyl]methyl (2S)-2-amino-3-methylbutanoate] | < 1 µM | < 5 µM
COc1nc2c(s1)CN(C(=O)c1cc3ccccc3[nH]1)CC2 [Example 151, 2-{2-methoxy-4H,5H,6H,7H-[1,3]thiazolo[5,4-c]pyridine-5-carbonyl}-1H-indole] | 1 to 10 µM | < 100 µM
O=C(c1cc2ccccc2[nH]1)N1CCc2nc(NCC3CC3)sc2C1 [Example 96, N-(cyclopropylmethyl)-5-(1H-indole-2-carbonyl)-4H,5H,6H,7H-[1,3]thiazolo[5,4-c]pyridin-2-amine] | < 1 µM | < 5 µM
